How the values were obtained:
[1] = in vitro; conditions: human, liver microsomes
[2] = in vitro; conditions: guinea pig, liver microsomes
[3] = in vitro; conditions: rat, liver microsomes

`O=C(Nc1cc(F)cc(C(F)(F)F)c1)c1cc2nc(Nc3c(F)cccc3Cl)[nH]c2c2c1OCCO2` gave a remaining at 1 h, 1 µM [1] of 98.2%, a remaining at 1 h, 1 µM [2] of 95.8% and a remaining at 1 h, 1 µM [3] of 93.8%.

Reference: ChEMBL document CHEMBL3872236, “Discovery of 2-((2-chloro-6-fluorophenyl)amino)-N-(3-fluoro-5-(trifluoromethyl)phenyl)-1-methyl-7,8-dihydro-1H-[1,4]dioxino[2',3':3,4]benzo[1,2-d]imidazole-5-carboxamide as potent, selective and efficacious microsomal prostaglandin E2 synthase-1 (mPGES-1) inhibitor” (Bioorg Med Chem Lett, 2016)
